Results on 4 compounds are retold here after article PMC8535176, “Efficacy of epetraborole against Mycobacterium abscessus is increased with norvaline” (PLoS Pathogens, 2021).

What all share (assay): microbe, parasite or virus in culture
In experiment [1] the test system is M. avium intracellulaire. Also noted: Whole-cell growth inhibition, dose-response MIC (MIC90) by resazurin microtiter assay (REMA), fluorescence read-out. Conditions: Mycobacterium avium.
The subject of experiment [2] is B. cereus. Also noted: Whole-cell growth inhibition, dose-response MIC (MIC90) by resazurin microtiter assay (REMA), fluorescence read-out. Conditions: Bacillus cereus.
Experiment [3] relates to M. abscessus. Also noted: Whole-cell growth inhibition, dose-response MIC (MIC90) by resazurin microtiter assay (REMA), fluorescence read-out. Conditions: Mycobacteroides abscessus.
In experiment [4] the test system is T1, M. tuberculosis Erdman.
T1 construct: Erdman
More on the design: Whole-cell growth inhibition, dose-response MIC (MIC90) by resazurin microtiter assay (REMA), fluorescence read-out. Conditions: Mycobacterium tuberculosis, ERDMAN.

Experiment [5] relates to T2, M. tuberculosis H37Rv.
T2 construct: H37Rv
Also noted: Whole-cell growth inhibition, dose-response MIC (MIC90) by resazurin microtiter assay (REMA), fluorescence read-out. Conditions: Mycobacterium tuberculosis, H37RV.

Experiment [6] concerns E. coli. More on the design: Whole-cell growth inhibition, dose-response MIC (MIC90) by resazurin microtiter assay (REMA), fluorescence read-out. Conditions: Escherichia coli.
In experiment [7] the test system is M. avium hominissuis. More on the design: Whole-cell growth inhibition, dose-response MIC (MIC90) by resazurin microtiter assay (REMA), fluorescence read-out. Conditions: Mycobacterium avium.
Experiment [8] has as its system C. glutamicum. Also noted: Whole-cell growth inhibition, dose-response MIC (MIC90) by resazurin microtiter assay (REMA), fluorescence read-out. Conditions: Corynebacterium glutamicum.
The subject of experiment [9] is P. aeruginosa. Also noted: Whole-cell growth inhibition, dose-response MIC (MIC90) by resazurin microtiter assay (REMA), fluorescence read-out. Conditions: Pseudomonas aeruginosa.
Experiment [10] deals with T3, Mycobacteroides abscessus subsp. abscessus MT16_6490.
T3 construct: MT16_6490
Also noted: species or system M. abscessus; Resazurin microtiter assay (REMA), fluorescence; MIC at 90% growth inhibition from Gompertz fit. Conditions: 48 h, smooth morphotype. As to the method: (§1) MIC values were determined using the resazurin microtiter assay (REMA). Cultures were grown to log phase (OD600 of 0.4–0.8) and diluted to OD600 of 0.005. Drugs were prepared in two-fold serial dilutions in 96-well plates with 90 μL of bacteria per well to a final volume of 100 μL. Plates were incubated at 37°C until drug-free wells were turbid (2 days for M. abscessus). Ten μL of resazurin (0.025% wt/vol) was added to each well. Once the drug-free wells turned pink (one doubling time), the fluorescence (ex/em 560nm/590nm) was measured using an Infinite F200 Tecan plate reader. Fluorescence intensities were converted to % viable cells relative to drug-free conditions and fit to the Gompertz equation using GraphPad Prism version 9. MIC values at 90% growth inhibition were determined from the nonlinear regression Gompertz equation. Next, we tested the in vitro activity of EPT against a panel of M. abscessus clinical isolates belonging to the three subspecies of the M. abscessus complex (M. abscessus, M. massiliense, and M. bolletii) with smooth and rough colony morphologies and with different drug susceptibility profiles to various antibiotics. There was no loss in activity against clinical isolates (range of 0.014–0.046 μg/mL) nor different morphologies (S2 Table). To determine the spectrum of activity of EPT, we curated a panel of various mycobacteria and representative gram-positive and gram-negative bacteria. […] Mycobacteria strains were grown in rolling [compound left out] culture at 37°C in Middlebrook 7H9 (Difco) supplemented with 10% albumin dextrose catalase (ADC), 0.2% glycerol, and 0.05% Tween 80 (7H9 complete) or on 7H10 agar plates supplemented with 10% oleic acid ADC and 0.5% glycerol at 37°C. When mentioned, the carbon source was modified from glycerol to acetate or the detergent Tween 80 was removed from the media. Bacillus cereus (clinical isolate), Corynebacterium glutamicum (ATCC 13032), Escherichia coli, and Pseudomonas aeruginosa PAO1 were grown in LB broth. HepG2 cells (ATCC HB-8065) were grown in Dulbecco’s modified Eagle’s medium (DMEM) with phenol red (from Gibco) supplemented with 10% fetal bovine serum at 37°C with 5% CO2.

The test system of experiment [11] is T4, Mycobacteroides abscessus subsp. massiliense MT15_1748.
T4 construct: MT15_1748
Also noted: species or system M. abscessus; Resazurin microtiter assay (REMA), fluorescence; MIC at 90% growth inhibition from Gompertz fit. Conditions: 48 h, rough morphotype. As to the method: as §1

Experiment [12] deals with T5, Mycobacteroides abscessus subsp. massiliense MT15_1749.
T5 construct: MT15_1749
Also noted: species or system M. abscessus; Resazurin microtiter assay (REMA), fluorescence; MIC at 90% growth inhibition from Gompertz fit. Conditions: 48 h, rough morphotype. The protocol:
as §1

The test system of experiment [13] is T6, Mycobacteroides abscessus subsp. abscessus ATCC 19977.
T6 construct: ATCC 19977
Also noted: species or system M. abscessus; Resazurin microtiter assay (REMA), fluorescence; MIC at 90% growth inhibition from Gompertz fit. Conditions: ATCC19977, 48 h, rough morphotype. The protocol:
as §1

In experiment [14] the test system is T7, Mycobacteroides abscessus subsp. abscessus MT16_1065.
T7 construct: MT16_1065
Also noted: species or system M. abscessus; Resazurin microtiter assay (REMA), fluorescence; MIC at 90% growth inhibition from Gompertz fit. Conditions: 48 h, smooth morphotype. The protocol:
as §1

In experiment [15] the test system is T8, Mycobacteroides abscessus subsp. bolletii AV.
T8 construct: AV
More on the design: species or system M. abscessus; Resazurin microtiter assay (REMA), fluorescence; MIC at 90% growth inhibition from Gompertz fit. Conditions: 48 h, smooth morphotype. As to the method: as §1

Experiment [16] deals with T9, Mycobacteroides abscessus subsp. bolletii Paris 167.
T9 construct: Paris 167
Also noted: species or system M. abscessus; Resazurin microtiter assay (REMA), fluorescence; MIC at 90% growth inhibition from Gompertz fit. Conditions: 48 h, rough morphotype. As to the method: as §1

SMILES strings stand for the structures. In brackets after ≈: the same amount, converted by molar mass. Where two headings read alike, the source gives them in different places. Where only a bound is given, the exact number is not on record here.

In the case of `NCC[C@H](O)C(=O)N[C@@H]1C[C@H](N)[C@@H](O[C@H]2O[C@H](CN)[C@@H](O)[C@H](O)[C@H]2O)[C@H](O)[C@H]1O[C@H]1O[C@H](CO)[C@@H](O)[C@H](N)[C@H]1O` [Amikacin], the MIC in experiment [1] (read-out: MIC (µg/mL) / AMK) came to 3.8 µg/mL (≈ 6.49 µM); in [2] (read-out: MIC (µg/mL) / AMK), 64 µg/mL (≈ 109 µM); in experiment [3] (read-out: MIC (µg/mL) / AMK), 4.8 µg/mL (≈ 8.2 µM); in [4] (read-out: MIC (µg/mL) / AMK) it was 0.48 µg/mL (≈ 0.82 µM); in experiment [5] (read-out: MIC (µg/mL) / AMK), 0.3 µg/mL (≈ 0.512 µM); in [6] (read-out: MIC (µg/mL) / AMK), 0.15 µg/mL (≈ 0.256 µM). Also, the MIC in [7] (read-out: MIC (µg/mL) / AMK) is 5.6 µg/mL (≈ 9.56 µM); in experiment [8] (read-out: MIC (µg/mL) / AMK), 0.064 µg/mL (≈ 0.109 µM); in experiment [9] (read-out: MIC (µg/mL) / AMK) it was 0.22 µg/mL (≈ 0.376 µM); in experiment [10] (read-out: MIC AMK), 5.7 µg/mL (≈ 9.73 µM); in [11] (read-out: MIC AMK) it was 14 µg/mL (≈ 23.9 µM); in [12] (read-out: MIC AMK), 8.8 µg/mL (≈ 15 µM). Also, the results for the MIC in experiment [13] (read-out: MIC AMK), in experiment [14] (read-out: MIC AMK) and in experiment [15] (read-out: MIC AMK) were 2.4 µg/mL (≈ 4.1 µM), 2.1 µg/mL (≈ 3.59 µM) and 7 µg/mL (≈ 12 µM), respectively.

As for `COc1nc2ccc(Br)cc2cc1[C@@H](c1ccccc1)[C@@](O)(CCN(C)C)c1cccc2ccccc12` [Bedaquiline], the MIC in experiment [1] (read-out: MIC (µg/mL) / BDQ) was 0.014 µg/mL (≈ 0.0252 µM); in experiment [2] (read-out: MIC (µg/mL) / BDQ) it was over 7.8 µg/mL; in [3] (read-out: MIC (µg/mL) / BDQ), 0.67 µg/mL (≈ 1.21 µM); in experiment [4] (read-out: MIC (µg/mL) / BDQ) it was 0.061 µg/mL (≈ 0.11 µM); in experiment [5] (read-out: MIC (µg/mL) / BDQ), 0.26 µg/mL (≈ 0.468 µM); in [6] (table prints MIC, main text calls the EPT values MIC90, read-out: MIC (µg/mL) / BDQ) it was over 7.8 µg/mL. For the same compound, the MIC was 0.038 µg/mL (≈ 0.0684 µM) in experiment [7] (read-out: MIC (µg/mL) / BDQ); over 7.8 µg/mL in [8] (read-out: MIC (µg/mL) / BDQ); over 7.8 µg/mL in experiment [9] (read-out: MIC (µg/mL) / BDQ); 0.83 µg/mL (≈ 1.49 µM) in [10] (read-out: MIC BDQ); 0.23 µg/mL (≈ 0.414 µM) in [11] (read-out: MIC BDQ); 0.4 µg/mL (≈ 0.72 µM) in experiment [12] (read-out: MIC BDQ). For the same compound, the MIC is 0.27 µg/mL (≈ 0.486 µM) in [13] (read-out: MIC BDQ), 0.39 µg/mL (≈ 0.702 µM) in experiment [16] (read-out: MIC BDQ), 0.36 µg/mL (≈ 0.648 µM) in [14] (read-out: MIC BDQ) and 1.3 µg/mL (≈ 2.34 µM) in experiment [15] (read-out: MIC BDQ).

In the case of `CO[C@@]1(NC(=O)Cc2cccs2)C(=O)N2C(C(=O)O)=C(COC(N)=O)CS[C@@H]21` [Cefoxitin], the MIC in experiment [1] (read-out: MIC (µg/mL) / CFX) is 0.42 µg/mL (≈ 0.983 µM); in experiment [2] (read-out: MIC (µg/mL) / CFX), over 98 µg/mL; in [3] (read-out: MIC (µg/mL) / CFX) it was 12 µg/mL (≈ 28.1 µM); in experiment [4] (read-out: MIC (µg/mL) / CFX) it was over 98 µg/mL; in [5] (read-out: MIC (µg/mL) / CFX) it was over 98 µg/mL; in experiment [6] (read-out: MIC (µg/mL) / CFX), 4 µg/mL (≈ 9.36 µM). For the same compound, the MIC in experiment [7] (read-out: MIC (µg/mL) / CFX) was 4.7 µg/mL (≈ 11 µM); in [8] (read-out: MIC (µg/mL) / CFX) it was 98 µg/mL (≈ 229 µM); in [9] (read-out: MIC (µg/mL) / CFX), over 98 µg/mL; in [10] (read-out: MIC CFX), 13 µg/mL (≈ 30.4 µM); in experiment [11] (read-out: MIC CFX), 26 µg/mL (≈ 60.8 µM); in experiment [12] (read-out: MIC CFX) it was 16 µg/mL (≈ 37.4 µM). The figures for the MIC in [16] (read-out: MIC CFX), in experiment [14] (read-out: MIC CFX) and in experiment [15] (read-out: MIC CFX) were 16 µg/mL (≈ 37.4 µM), 13 µg/mL (≈ 30.4 µM) and 15 µg/mL (≈ 35.1 µM), respectively.

Take `CO[C@H]1/C=C/O[C@@]2(C)Oc3c(C)c(O)c4c(O)c(c(/C=N/N5CCN(C)CC5)c(O)c4c3C2=O)NC(=O)/C(C)=C\C=C\[C@H](C)[C@H](O)[C@@H](C)[C@@H](O)[C@@H](C)[C@H](OC(C)=O)[C@@H]1C` [Rifampicin]: the MIC in experiment [1] (read-out: MIC (µg/mL) / RIF) was 0.063 µg/mL (≈ 0.0766 µM); in experiment [2] (read-out: MIC (µg/mL) / RIF), under 0.063 µg/mL; in experiment [3] (read-out: MIC (µg/mL) / RIF), 9.1 µg/mL (≈ 11.1 µM); in experiment [4] (read-out: MIC (µg/mL) / RIF), 0.0065 µg/mL (≈ 0.0079 µM); in experiment [5] (read-out: MIC (µg/mL) / RIF), 0.0063 µg/mL (≈ 0.00766 µM); in [6] (read-out: MIC (µg/mL) / RIF), 3.9 µg/mL (≈ 4.74 µM). The MIC in experiment [7] (read-out: MIC (µg/mL) / RIF) was 0.063 µg/mL (≈ 0.0766 µM); in [8] (read-out: MIC (µg/mL) / RIF) it was under 0.063 µg/mL; in experiment [9] (read-out: MIC (µg/mL) / RIF) it was 15 µg/mL (≈ 18.2 µM); in [10] (read-out: MIC RIF), over 24 µg/mL; in experiment [12] (read-out: MIC RIF), 6.7 µg/mL (≈ 8.14 µM); in [13] (read-out: MIC RIF), 1.8 µg/mL (≈ 2.19 µM). Also, the values for the MIC in [16] (read-out: MIC RIF), in experiment [14] (read-out: MIC RIF) and in [15] (read-out: MIC RIF) were 7.4 µg/mL (≈ 8.99 µM), over 24 µg/mL and over 24 µg/mL, respectively.
